Results published in article PMC9387934, “Randomized single oral dose phase 1 study of safety, tolerability, and pharmacokinetics of Iminosugar UV-4 Hydrochloride (UV-4B) in healthy subjects” (PLoS Neglected Tropical Diseases, 2022).
Where “and” joins values, the source holds several entries; their conditions need not be identical. Equal entries are not always repeated. Where two headings read alike, the source gives them in different places.

Assays:
[1] = Phase 1a single ascending dose study: UV-4 in pooled urine, urinary recovery and renal clearance; format: in vivo, human; details: for dose excreted: human, urine, oral, 48 hours
Description: Serial blood samples were collected at pre-dose (0 hour) and 0.5, 1, 1.5, 2, 2.5, 3, 4, 6, 9, 12, 18, 24, 36, and 48 hours post-dose for assessment of UV-4 concentrations in plasma. Pooled urine samples were collected at pre-dose (-12 to 0 hour) and from 0 to 6, 6 to 12, 12 to 24, and 24 to 48 hours post-dose for assessment of UV-4 concentrations in urine. Plasma and urine concentrations of UV-4 were determined by means of validated, sensitive, and specific high-performance liquid chromatography/tandem mass spectrometric (LC-MS/MS) assays. UV-4 plasma and urine concentrations and PK parameters were listed and summarized by dose, as appropriate. Only the 48 subjects who received active investigational product were included in the PK analysis population.
8.2.3 Specimen Preparation, Handling, and Shipping
8.2.3.1 Instructions for Specimen Preparation, Handling, and Storage
The collected PK blood samples (2 mL) will be placed on ice after blood draw, and within 1 hour centrifuged at room temperature at approximately 3000 revolutions per minute for 15 minutes. Plasma will then be harvested and split into 4 aliquots of approximately 250 μ L and stored frozen at -20°C until shipped.
Urine samples (approximately 10 mL) for determination of UV-4 concentrations in urine will be taken from the total volume provided during each collection period. The total volume of each urine collection will be recorded along with the start/stop time for each urine collection interval.
Analysis of plasma and urine for UV-4 will be performed by the qualified bioanalytical laboratory, Quintiles Bioservices, Inc., Ithaca, New York 14950. Instructions for the proper preparation, handling, storage and shipping of specimens will be provided separately in a study-specific laboratory manual (i.e., Biopacket).
8.2.3.2 Specimen Shipment […]
The following single-dose urine PK parameters will be estimated from the UV-4 urine concentration-time data collected, as appropriate:
Ae Amount of UV-4 excreted in urine unchanged, calculated for each collection interval and cumulatively across intervals fe Fraction of UV-4 excreted in urine unchanged, calculated for each collection interval and cumulatively across intervals […]
Additional UV-4 PK parameters may be calculated at the discretion of the […]
Plasma concentrations and plasma and urine PK parameters will be summarized by treatment using descriptive statistics, as appropriate. Figures for the arithmetic mean (and SD) concentration-time data will be presented for all doses on both a linear and semi-logarithmic scale. Individual concentration-time data will be graphically presented on linear and semi-logarithmic scales. Scatter plots of individual and geometric mean PK parameters versus dose will be presented. Additional graphical presentations of PK data may be added at the discretion of the PK analyst.
Dose proportionality of Cmax, AUC(0-last), and AUC(0-inf) will be assessed graphically and statistically using the power model approach with the logarithm of PK parameters AUC(0-inf) and Cmax as the dependent variables and the logarithm of the dose as the independent variable: ([AUC(0-inf), AUC(0-last), or Cmax]=α *doseβ).
11.4.7 Deviation from Original Analysis Plan
Deviations from the formal statistical analysis plan will be noted in the final Clinical Study

[2] = BID or TID dosing after 14 days in mouse or dog; ref Investigator’s Brochure (IB); cited from earlier work
[3] = parameters: method as in Investigator’s Brochure (IB); details: dogs, ref Investigator’s Brochure (IB), cited from earlier work

SMILES: COCCCCCCCCCN1C[C@H](O)[C@@H](O)[C@H](O)[C@H]1CO [UV-4, N-(9’-methoxynonyl)-1-deoxynojirimycin]
- Time over which UV-4 was quantifiable in pooled urine ([1]; all doses (3 to 1000 mg), entire collection interval): 48 h
- dose excreted ([1]; 3 to 1000 mg dose range, read-out: UV-4 recovery in urine, range of dose group means): 39.8 to 55.1%
- dose excreted ([1]; 10 to 1000 mg dose range, read-out: Urinary recovery, range of dose group means): 46.4 to 55.1%
- Renal clearance as share of UV-4 apparent systemic clearance ([1]; in vivo): ≥ 50%
- Accumulation [2]: did not accumulate
- Finding at the highest dose ([3]; 150 mg/kg/dose TID for seven days): severe GI effects
- Finding at 10 mg/kg/dose TID ([3]; 10 mg/kg): diarrhea was still apparent although not adverse

SMILES: COCCCCCCCCCN1C[C@H](O)[C@@H](O)[C@H](O)[C@H]1CO [UV4]
- CONCENTRATION UV4 in human urine ([1]; Cohort 1, nominal day 1, nominal hour 0 (pre-dose), individual subjects): <LLOQ (0.500) ng/mL
- CONCENTRATION UV4 in human urine ([1]; Cohort 1, nominal day 1, nominal hour 6, individual subjects): 650 ng/mL and 868 ng/mL
- CONCENTRATION UV4 in human urine ([1]; Cohort 1, nominal day 1, nominal hour 12, individual subjects): 414 ng/mL and 455 ng/mL
- CONCENTRATION UV4 in human urine ([1]; Cohort 1, nominal day 2, nominal hour 24, individual subjects): 99.1 ng/mL and 451 ng/mL
- CONCENTRATION UV4 in human urine ([1]; Cohort 1, nominal day 2, nominal hour 48, individual subjects): 74.6 ng/mL and 166 ng/mL
- CONCENTRATION UV4 in human urine ([1]; Cohort 3, nominal day 1, nominal hour 0 (pre-dose), individual subjects): <LLOQ (0.500) ng/mL
- CONCENTRATION UV4 in human urine ([1]; Cohort 3, nominal day 1, nominal hour 6, individual subjects): 6240 ng/mL and 8650 ng/mL and 11700 ng/mL
- CONCENTRATION UV4 in human urine ([1]; Cohort 3, nominal day 1, nominal hour 12, individual subjects): 8820 ng/mL and 2090 ng/mL and 1200 ng/mL and 11200 ng/mL
- CONCENTRATION UV4 in human urine ([1]; Cohort 3, nominal day 2, nominal hour 24, individual subjects): 3300 ng/mL and 754 ng/mL and 614 ng/mL and 3690 ng/mL
- CONCENTRATION UV4 in human urine ([1]; Cohort 3, nominal day 2, nominal hour 48, individual subjects): 721 ng/mL and 248 ng/mL and 147 ng/mL and 900 ng/mL
- CONCENTRATION UV4 in human urine ([1]; Cohort 4, nominal day 1, nominal hour 0 (pre-dose), individual subjects): <LLOQ (0.500) ng/mL and 1.11 ng/mL
- CONCENTRATION UV4 in human urine ([1]; Cohort 4, nominal day 1, nominal hour 6, individual subjects): 46400 ng/mL and 48400 ng/mL and 30900 ng/mL and 140000 ng/mL and 54900 ng/mL and 36000 ng/mL
- CONCENTRATION UV4 in human urine ([1]; Cohort 4, nominal day 1, nominal hour 12, individual subjects): 3970 ng/mL and 24500 ng/mL and 26000 ng/mL and 15000 ng/mL and 33100 ng/mL and 11200 ng/mL
- CONCENTRATION UV4 in human urine ([1]; Cohort 4, nominal day 2, nominal hour 24, individual subjects): 1230 ng/mL and 7560 ng/mL and 8120 ng/mL and 8370 ng/mL and 4550 ng/mL and 3920 ng/mL
- CONCENTRATION UV4 in human urine ([1]; Cohort 4, nominal day 2, nominal hour 48, individual subjects): 367 ng/mL and 2090 ng/mL and 1260 ng/mL and 1810 ng/mL and 473 ng/mL and 648 ng/mL
- CONCENTRATION UV4 in human urine ([1]; Cohort 5, nominal day 1, nominal hour 0 (pre-dose), individual subjects): <LLOQ (0.500) ng/mL
- CONCENTRATION UV4 in human urine ([1]; Cohort 5, nominal day 1, nominal hour 6, individual subjects): 122000 ng/mL and 104000 ng/mL and 75800 ng/mL and 62800 ng/mL and 65800 ng/mL and 68800 ng/mL
- CONCENTRATION UV4 in human urine ([1]; Cohort 5, nominal day 1, nominal hour 12, individual subjects): 17100 ng/mL and 26900 ng/mL and 16200 ng/mL and 22000 ng/mL and 21200 ng/mL and 18200 ng/mL
- CONCENTRATION UV4 in human urine ([1]; Cohort 5, nominal day 2, nominal hour 24, individual subjects): 5200 ng/mL and 6760 ng/mL and 4560 ng/mL and 7550 ng/mL and 11900 ng/mL and 7200 ng/mL
- CONCENTRATION UV4 in human urine ([1]; Cohort 5, nominal day 2, nominal hour 48, individual subjects): 706 ng/mL and 961 ng/mL and 775 ng/mL and 2920 ng/mL and 2030 ng/mL and 1860 ng/mL
- CONCENTRATION UV4 in human urine ([1]; Cohort 6, nominal day 1, nominal hour 0 (pre-dose), individual subjects): <LLOQ (0.500) ng/mL
- CONCENTRATION UV4 in human urine ([1]; Cohort 6, nominal day 1, nominal hour 6, individual subjects): 357000 ng/mL and 97600 ng/mL and 326000 ng/mL and 75900 ng/mL and 182000 ng/mL and 126000 ng/mL
- CONCENTRATION UV4 in human urine ([1]; Cohort 6, nominal day 1, nominal hour 12, individual subjects): 35000 ng/mL and 12100 ng/mL and 104000 ng/mL and 38000 ng/mL and 15200 ng/mL and 19200 ng/mL
- CONCENTRATION UV4 in human urine ([1]; Cohort 6, nominal day 2, nominal hour 24, individual subjects): 6830 ng/mL and 2550 ng/mL and 4060 ng/mL and 7760 ng/mL and 6220 ng/mL and 12700 ng/mL
- CONCENTRATION UV4 in human urine ([1]; Cohort 6, nominal day 2, nominal hour 48, individual subjects): 1470 ng/mL and 442 ng/mL and 1480 ng/mL and 1390 ng/mL and 830 ng/mL
